Measured values as given in US10709678B2, “Methods of reducing risk of cardiovascular disease” (NEUROBO PHARMACEUTICALS, INC., priority 2012, dated 2020).
Read-outs that look alike come from different tables or passages of the source.

What was measured:
obese female Zucker rats = conditions: cited from earlier work
LDL-C [1] = conditions: monotherapy, ezetimibe 10 mg; cited from earlier work
[2] = system: hypercholesterolemic patients; assay: 8-week double-blind placebo-controlled phase 2 study of gemcabene added to a stable statin dose: LDL-C; type: in vivo, human; conditions: on stable statin, placebo reduction 7.9%, p<0.01
Experimental: An 8-week, double-blind, placebo-controlled, randomized, multicenter, phase 2 study in hypercholesterolemic patients on a stable dose of statin (on statin therapy for at least the previous 3 months) was conducted to evaluate the efficacy of gemcabene in the further reduction of LDL-C in these patients.
A total of 66 hypercholesterolemic patients were treated in this study: 22 randomized to gemcabene 900 mg, 20 randomized to gemcabene 300 mg, and 24 randomized to placebo.
Patients included in the study were men and women ≥18 and ≤65 years of age with hypercholesterolemia and an LDL-C level at screening of ≥130 mg/dL while on a stable (3-months) dose of a statin. Patients were required to maintain their current dose of statin throughout the course of the study. […]
Percent change from base line was calculated as follows: Percent Change From Baseline=[(final value−baseline value)/baseline value]×100%. […]

[3] = system: hypercholesterolemic patients; assay: Framingham Risk Score, baseline vs week 8, in the same phase 2 study; type: in vivo, human; conditions: 300 mg and 900 mg QD
Experimental: As used herein, references to 10-year risk are calculated using the Framingham point scores as provided in Tables 1 and 2, for men and women respectively. The patients' Framingham Risk Score was calculated at baseline. The Framingham risk score calculation takes into account: age, gender, systolic blood pressure level (+/−treatment), HDL cholesterol level, and smoker status. […] Significance was determined using the SAS Proc Univariate which provides p values from the student's paired t-test and the Wilcoxon Signed Rank test.

LDL-C [4] = conditions: cited from earlier work
LDL-C [5] = conditions: lovastatin 40 mg twice daily; cited from earlier work

CC(C)(CCCCCC(O)CCCCCC(C)(C)C(=O)O)C(=O)O [ESP 55016]
HDL-C (obese female Zucker rats): raising
non-HDL-C (obese female Zucker rats): effective in lowering
triglyceride levels (obese female Zucker rats): decreasing

O=C1[C@H](CC[C@H](O)c2ccc(F)cc2)[C@@H](c2ccc(O)cc2)N1c1ccc(F)cc1 [ezetimibe]
LDL-C lowered (LDL-C [1]): 16%

CC(C)(CCCCOCCCCC(C)(C)C(=O)O)C(=O)O [gemcabene, 6,6′-oxybis-(2,2′-dimethylhexanoic acid)]
LDL-C lowered from baseline at Week 8, median ([2]; 300 mg per day): 24.8%
LDL-C lowered from baseline at Week 8, median ([2]; 900 mg per day): 31.0%
Framingham Risk Score compared with statin treatment alone [3]: significantly reduced
decrease in LDL-C beyond atorvastatin monotherapy (LDL-C [4]; 300 mg gemcabene with atorvastatin (aggregated over 10, 40 and 80 mg)): 3.8%
decrease in LDL-C beyond atorvastatin monotherapy (LDL-C [4]; 600 mg gemcabene with atorvastatin (aggregated over 10, 40 and 80 mg)): 6.1%
decrease in LDL-C beyond atorvastatin monotherapy (LDL-C [4]; 900 mg gemcabene with atorvastatin (aggregated over 10, 40 and 80 mg)): 7.4%

CC[C@H](C)C(=O)O[C@H]1C[C@@H](C)C=C2C=C[C@H](C)[C@H](CC[C@@H]3C[C@@H](O)CC(=O)O3)[C@H]21 [lovastatin]
LDL-C lowered (LDL-C [5]): 35.5%
